According to patent US10532066B2, “Surfactant lipids, compositions thereof, and uses thereof” (National Jewish Health, priority 2007, dated 2020):

Key:
Format in all cases: cell-based
[1] = test system: Respiratory Syncytial Virus (RSV); experiment: RSV replication in NHBE cells (anti-RSV antibody staining); conditions: multiplicity 3, 72 h, POPG 200 ug/ml
Description: Monolayers of BEAS2B and NHBE cells were infected with RSV at a multiplicity of 3 for 72 h. Infections were performed on cells in either the absence or the presence of POPG (200 ug/ml). The cell monolayers were fixed and stained with goat anti-human RSV antibody conjugated with horseradish peroxidase. The presence of the antibody was detected with diaminobenzamidine. Controls consisted of cell layers not exposed to the virus or exposed to POPG in the absence of virus as indicated.

[2] = test system: TNF-α stimulated macrophages; experiment: IkBα degradation in TNF-α stimulated macrophages; conditions: TNF-α 10 ng/ml
Description: Protein synthesis was measured by determining [^3H]-Leucine incorporation into trichloroacetic acid precipitable material in the presence and absence of 200 μg/ml POPG. No changes in protein synthesis occurred over a 6 hr period in POPG treated U937 cells compared to untreated cells in 3 independent experiments. […] In these studies, macrophages were treated with TNF-α (10 ng/ml) and the degradation of IkBα was measured. […] Collectively, these studies indicate that the actions of the anionic lipids upon LPS signaling are specific.

[3] = test system: Respiratory Syncytial Virus (RSV); experiment: Cytopathic effects of RSV upon BEAS2B cells (photomicrography)
Description: Monolayers of BEAS2B cells were infected with RSV at a multiplicity of 3 for 72 h. Infections were performed on cells in either the absence or the presence of POPG (200 ug/ml). The cell monolayers were photographed at a magnification of 200×. Controls consisted of no viral challenge in either the presence or absence of POPG as indicated.
Monolayers of BEAS2B cells were infected with RSV at a multiplicity of 3 for 72 h. Infections were performed on cells in either the absence (b) or the presence (c,f) of POPG (200 ug/ml) and POPC (200 ug/ml) as indicated. Cells were photographed at a magnification of 200×. Controls (a,d,e) consisted of cell layers either not exposed to virus or exposed to POPG, and POPC in the absence of virus as indicated.
Monolayers of BEAS2B cells were infected with RSV at a multiplicity of 0.5-1, in either the presence or absence of 200 ug/ml POPG, or 200 ug/ml POPC, as indicated.
Monolayers of BEAS2B cells were either uninfected (CONL) or challenged with RSV at a multiplicity of 0.5/cell (RSV). Where indicated in the FIG. 44, RSV challenged cells were also treated with POPC (200 ug/ml) or POPG (200 ug/ml) liposomes; or POPG nanodiscs (nanoPOPG) at concentrations ranging from 100-300 ug/ml. Selected panels and fields are also shown at 400× magnification in FIG. 45.
Where indicated in FIG. 46, RSV challenged cells were also treated with nanodisc forms of dipalmitoyl-phosphatidylcholine (nanoDPPC), palmitoyl-oleoyl-phosphatidylcholine (nanoPOPC), or dioleoyl-phosphatidylcholine (nanoDOPC), dipalmitoyl-phosphatidylglycerol (nanoDPPG), dimyristoyl-phosphatidylglycerol (nanoDMPG), or dioleoyl-phosphatidylglycerol (nanoDOPG). At 72 h after infection, the cultures were examined by photomicrography at a magnification of 200×.

TLR1 = molecular target: T1, TLR1 (Homo sapiens, UniProt Q15399); experiment: TLR agonist IL-8 production in primary human neutrophils, TLR1; parameters: endogenous in cells; host or cells: primary human neutrophils; conditions: Pam3Cys, 5-24 h
T1 sequence (Q15399 25-786): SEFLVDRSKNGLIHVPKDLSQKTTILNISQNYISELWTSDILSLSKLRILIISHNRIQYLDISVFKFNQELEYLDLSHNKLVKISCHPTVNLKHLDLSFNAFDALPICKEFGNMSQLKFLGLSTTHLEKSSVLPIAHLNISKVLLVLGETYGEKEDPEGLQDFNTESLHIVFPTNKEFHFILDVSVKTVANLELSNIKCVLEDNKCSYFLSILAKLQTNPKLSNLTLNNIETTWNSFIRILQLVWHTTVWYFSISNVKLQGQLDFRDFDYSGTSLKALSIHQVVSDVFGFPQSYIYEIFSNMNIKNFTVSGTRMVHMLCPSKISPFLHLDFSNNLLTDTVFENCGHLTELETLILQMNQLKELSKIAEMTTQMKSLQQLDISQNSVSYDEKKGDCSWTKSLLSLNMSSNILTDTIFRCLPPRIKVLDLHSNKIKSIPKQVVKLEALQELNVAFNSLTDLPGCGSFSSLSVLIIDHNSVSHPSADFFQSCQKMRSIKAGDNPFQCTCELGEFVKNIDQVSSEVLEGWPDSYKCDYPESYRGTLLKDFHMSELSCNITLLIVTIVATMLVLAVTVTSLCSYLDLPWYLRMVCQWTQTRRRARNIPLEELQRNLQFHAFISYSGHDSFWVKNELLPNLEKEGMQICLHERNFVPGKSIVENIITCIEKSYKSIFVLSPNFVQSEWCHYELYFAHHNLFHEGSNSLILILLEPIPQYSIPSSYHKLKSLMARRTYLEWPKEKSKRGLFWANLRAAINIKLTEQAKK
Description: In this experiment, multiple TLRs were stimulated with defined TLR agonists for 5-24 h as indicated, and the IL-8 production was measured. In each case the maximal stimulation by agonist is set at 100% and the antagonism by POPG is expressed as the relative % response. The Controls consist of no treatment, or treatment with POPG, in the absence of agonist as indicated. The agonists for the TLRs consist of Pam3Cys for TLR1/2, double stranded RNA (poly IC) for TLR3, Gram-negative lipopolysaccharide (LPS) for TLR4, and single stranded RNA (polyU) for TLR7/8.

TLR3 = molecular target: T2, TLR3 (Mus musculus, UniProt Q99MB1); experiment: TLR agonist TNFα production in RAW 264.7 cells, TLR3; conditions: poly IC, 24 h
T2 construct: endogenous in cells; host or cells: RAW 264.7
Description: (§1) In this experiment, multiple TLRs were stimulated with defined TLR agonists for 24 h and the TNFα production was measured. In each case, the maximal stimulation by agonist is set at 100% and the antagonism by POPG is expressed as the relative % response. The Controls consist of no treatment, or treatment with POPG in the absence of agonist as indicated. The agonists for the TLRs consist of Pam3Cys for TLR1/2, Mycoplasma pneumoniae membranes as an agonist for TLR2, mycoplasma derived MALP2 as an agonist for TLR 2/6, double stranded RNA (poly IC) for TLR3, Gram-negative lipopolysaccharide for TLR4, and CpG rich DNA as an agonist for TLR9. The TLR4 panel also contains the antagonist polymyxin B (PB) for comparison with POPG.

TLR6 = molecular target: T3, TLR6 (Mus musculus, UniProt Q9EPW9); experiment: TLR agonist TNFα production in RAW 264.7 cells, TLR6; conditions: MALP2, 24 h
T3 construct: endogenous in cells; host or cells: RAW 264.7
Description: as §1

influenza-A virus H3N2 = experiment: Influenza-A cytopathic effects and cell death in BEAS2B cells; conditions: 72 h, 200 ug/ml POPG

T2 sequence (Q99MB1 26-905): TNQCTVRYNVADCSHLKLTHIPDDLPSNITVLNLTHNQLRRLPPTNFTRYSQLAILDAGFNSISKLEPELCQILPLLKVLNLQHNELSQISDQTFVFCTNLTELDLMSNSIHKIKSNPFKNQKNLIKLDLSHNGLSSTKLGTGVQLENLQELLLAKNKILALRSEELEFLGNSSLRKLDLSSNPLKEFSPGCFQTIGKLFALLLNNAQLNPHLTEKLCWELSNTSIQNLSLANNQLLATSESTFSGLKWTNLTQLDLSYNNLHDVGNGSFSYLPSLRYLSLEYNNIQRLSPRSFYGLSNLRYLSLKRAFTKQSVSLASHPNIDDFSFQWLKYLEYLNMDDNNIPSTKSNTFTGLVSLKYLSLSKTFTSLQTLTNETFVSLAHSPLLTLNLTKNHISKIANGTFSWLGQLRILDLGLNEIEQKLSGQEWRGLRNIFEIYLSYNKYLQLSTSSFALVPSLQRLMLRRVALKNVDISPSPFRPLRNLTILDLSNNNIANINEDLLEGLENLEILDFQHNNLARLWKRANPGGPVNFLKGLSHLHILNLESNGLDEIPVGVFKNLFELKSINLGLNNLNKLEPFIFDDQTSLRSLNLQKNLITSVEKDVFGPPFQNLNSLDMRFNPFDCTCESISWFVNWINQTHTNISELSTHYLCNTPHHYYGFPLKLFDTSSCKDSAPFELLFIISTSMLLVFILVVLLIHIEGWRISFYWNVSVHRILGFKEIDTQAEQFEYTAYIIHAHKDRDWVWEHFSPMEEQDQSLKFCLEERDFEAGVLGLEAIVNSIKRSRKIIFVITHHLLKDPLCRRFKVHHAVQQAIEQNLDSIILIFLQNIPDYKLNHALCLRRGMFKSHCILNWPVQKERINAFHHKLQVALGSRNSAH
T3 sequence (Q9EPW9 28-795): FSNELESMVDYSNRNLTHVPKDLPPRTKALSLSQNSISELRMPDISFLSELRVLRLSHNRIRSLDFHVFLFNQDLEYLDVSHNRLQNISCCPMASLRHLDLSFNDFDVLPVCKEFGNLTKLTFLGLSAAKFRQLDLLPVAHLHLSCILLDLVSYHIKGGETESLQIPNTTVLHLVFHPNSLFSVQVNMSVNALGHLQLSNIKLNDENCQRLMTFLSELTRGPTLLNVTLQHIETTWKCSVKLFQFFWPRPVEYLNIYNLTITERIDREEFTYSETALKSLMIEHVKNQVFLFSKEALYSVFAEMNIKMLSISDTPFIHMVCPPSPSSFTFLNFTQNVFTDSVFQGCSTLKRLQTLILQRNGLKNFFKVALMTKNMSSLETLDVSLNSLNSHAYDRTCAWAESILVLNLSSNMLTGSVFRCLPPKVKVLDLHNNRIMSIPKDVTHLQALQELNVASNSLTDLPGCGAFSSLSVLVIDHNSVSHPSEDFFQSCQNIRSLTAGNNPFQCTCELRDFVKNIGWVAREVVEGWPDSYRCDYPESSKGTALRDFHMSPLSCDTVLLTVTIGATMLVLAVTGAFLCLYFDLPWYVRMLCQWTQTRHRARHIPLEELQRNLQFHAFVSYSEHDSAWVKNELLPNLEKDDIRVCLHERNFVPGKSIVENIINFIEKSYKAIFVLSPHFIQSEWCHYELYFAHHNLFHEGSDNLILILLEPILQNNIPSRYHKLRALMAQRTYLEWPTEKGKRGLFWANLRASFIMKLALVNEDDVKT

## CCCCCCCC/C=C\CCCCCCCC(=O)O[C@H](COC(=O)CCCCCCCCCCCCCCC)COP(=O)(O)OCC(O)CO (some centres unmarked) [POPG, palmitoyl-oleoyl-phosphatidylglycerol]
[1]
  viral replication: prevents viral replication
[2]
  IkBα degradation after TNF-α stimulation: failed to alter
[3]; multiplicity 0.5-1, 72 h, 200 ug/ml
  killing of cells by RSV: prevents the killing
[3]; multiplicity 3, 72 h, lipid 200 ug/ml
  cytopathic effects of RSV: prevents the cytopathic effects
TLR1
  activity of TLR1 (IL-8 production): inhibits
TLR3
  activity of TLR3 (TNFα production): inhibits
TLR6
  activity of TLR6 (TNFα production): inhibits
influenza-A virus H3N2
  cell death induced by influenza A infection: prevents cell death
